Experimental data published in patent US7074907B2, “Compound, process for producing the same and use thereof” (Nichirei Biosciences Inc., priority 2003, dated 2006).

What was measured:
[1] = Test for linoleic acid autooxidation inhibitory effect; type: biochemical; conditions: sample 0.01% (w/v) in ethanol, stored in darkness at 40° C., degree of oxidation after two weeks, FIGS. 1 and 2
Method: <Test for Linoleic Acid Autooxidation Inhibitory Effect> 2 ml of 2.5% (w/v) linoleic acid was mixed with 4 ml of a 0.05 M phosphate buffer (pH 7.0) to prepare a reaction liquid. The compound of the present invention was dissolved in 99.5% ethanol at a concentration of 0.01% (w/v) 2 ml of the resulting solution and 2 ml of distilled water were added to the reaction liquid to make the total volume to 10 ml, mixed, and placed in a brown threaded bottle to prepare a sample. A negative control was prepared by adding, to the reaction liquid, only 2 ml of 99.5% ethanol and 2 ml of distilled water, without adding anything else. […] The measurement was carried out by mixing 0.1 ml of a sample, 9.7 ml of 75% ethanol, and 0.1 ml of a 30% ammonium thiocyanate solution, adding 0.1 ml of 2×10^−2 M ferrous chloride (3.5% hydrochloric acid solution) thereto, and exactly 3 minutes later, measuring the absorbance at 500 nm. From the measured values, the difference in absorbance and the rate of autooxidation after two weeks were obtained. The same measurement was made with the blanks, and ΔAbsorbance=(Absorbance of Main Sample)−(Absorbance of Blank) was taken. The absorbance increases with oxidation of the sample, and after reaching the maximum, decreases with consumption of the sample to be oxidized. Thus earlier occurrence of the peak absorbance represents weaker antioxidative activity. […]

[2] = DPPH radical scavenging test; type: biochemical; conditions: concentration of the sample solution; acetate buffer pH 5.5, 30° C., 30 minutes, absorbance at 517 nm
Method: The antioxidative activity of the compound of not lower than 95% purity of the present invention prepared in Example 1 was evaluated using a stable radical, 1,1-diphenyl-2-picrylhydrazyl (DPPH).
To 1600 μl of 250 mM acetate buffer (pH=5.5), 1200 μl of ethanol and 400 μl of a sample (at an arbitrary concentration in ethanol) were mixed, and pre-incubated at 30° C. for 5 minutes. 800 μl of a 500 μM DPPH/ethanol solution was added, mixed, and left to stand at 30° C. for 30 minutes. Then the absorbance of the sample at 517 nm was measured.
A negative control was prepared by adding, instead of the sample solution, only ethanol to the reaction liquid without adding anything else. A positive control was prepared in the same way as for the present compound at the same concentration in ethanol, except that the present compound was replaced with α-tocopherol. From the measured absorbances, the radical scavenging ratio was calculated in accordance with the following formula. Scavenging ratio (%)=(1−[Absorbance of Sample]/[Absorbance of Control])×100
The scavenging ratios were measured with the sample concentration in the sample solution being changed stepwise, to determine the concentration of the sample solution at which the DPPH radical scavenging ratio was 50%. This concentration was taken as the 50% DPPH radical scavenged concentration. […]

## O=C(O)c1cc(O)c(O)c(O)c1 [gallic acid]
[1]
  antioxidative activity (oxidation inhibitory effect on linoleic acid): weaker oxidation inhibitory effect on linoleic acid

## Cc1c(C)c2c(c(C)c1O)CC[C@@](C)(CCC[C@H](C)CCC[C@H](C)CCCC(C)C)O2 [α-tocopherol]
[2]
  50% DPPH radical scavenged concentration: 121.5 µg/mL
